# From patent US8354431B2, “Aryl carboxylic acid cyclohexyl amide derivatives” (Novartis AG, priority 2007, dated 2013)
# How the values were obtained:
# hCCR2b = biological target: T1, hCCR2b (Homo sapiens, UniProt P41597); assay: CCR2 membrane binding assay (SPA, [125I] MCP-1); conditions: table does not name the assay; b437 says 'in these assays'
# T1 construct: expressed in transfected cells; host or cells: CHO-dukX
# T1 sequence (P41597 1-360 isoform P41597-2): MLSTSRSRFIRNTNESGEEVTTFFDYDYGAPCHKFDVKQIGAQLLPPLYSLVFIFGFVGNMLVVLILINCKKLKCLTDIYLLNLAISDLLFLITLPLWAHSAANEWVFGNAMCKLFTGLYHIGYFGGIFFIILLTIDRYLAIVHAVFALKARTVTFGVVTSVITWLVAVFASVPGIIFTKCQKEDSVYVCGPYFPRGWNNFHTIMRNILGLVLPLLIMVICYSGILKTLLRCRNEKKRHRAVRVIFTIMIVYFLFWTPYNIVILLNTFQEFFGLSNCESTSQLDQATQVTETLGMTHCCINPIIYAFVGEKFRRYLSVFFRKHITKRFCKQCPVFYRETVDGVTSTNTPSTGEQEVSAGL
# Method: Transfected CHO-dukX cells stably expressing the hCCR2b gene are grown in MEM alpha medium to a confluency of between 70 and 80%. After discarding the medium, 30 ml ice-cold physiological buffer solution containing 1 mM EDTA are added and the cells removed from the plate using a scraper. The cell suspension is centrifuged at 800 g for 10′ at 4° C. and the cell pellet resuspended in buffer. Cell lysis is done using a Polytron PTI300D instrument at 28 000 RPM for 2 times 30 seconds on ice. Membranes are collected by centrifugation at 42 000 g for 20 minutes at 4° C. and subjected to a second round of lysis (Polytron, 28 000 RPM, 2×30 seconds on ice). Following centrifugation at 42 000 g for 20 minutes at 4° C. the membranes are resuspended in buffer at a protein concentration of 2 mg/ml and stored at −80° C. Ten millimolar stock solutions of test compounds in 100% DMSO are prepared. Test compounds are further diluted in buffer to yield the four-fold concentrated solutions for the tests that assayed a range of 10^−10 to 10^−5 M. The SPA assay is performed in a final volume of 200 μl per well in 96 well plates. The components are added per well in the following order: • 50 μl Buffer (+/−test compound) • 50 μl Wheat germ agglutinin-SPA beads (1.25 mg/well) in buffer • 50 μl CCR2B membrane suspension diluted with buffer to 0.04 mg/ml (2 μg/well), alternatively 50,000 cells per well • 50 μl [^125I] MCP-1 in buffer (60 pM final concentration, 2.5 μCi/plate)
# After addition of all components the plate is sealed and incubated for 90 minutes at room temperature with constant shaking. Following incubation the plate is centrifuged at 1000 RPM in a Sorvall RC3B centrifuge for 4 minutes at room temperature and counted for 3 minutes per well in a TOP COUNT instrument (Packard). The quench-corrected counts are used for the analysis of radioligand binding.
# Human CCR5 = biological target: T2, Human CCR5 (Homo sapiens, UniProt P51681); assay: CCR5 membrane binding assay ([I-125]MIP-1α); conditions: table does not name the assay; b437 says 'in these assays'
# T2 construct: expressed in transfected cells; host or cells: CHO K1
# T2 sequence (P51681 whole entry): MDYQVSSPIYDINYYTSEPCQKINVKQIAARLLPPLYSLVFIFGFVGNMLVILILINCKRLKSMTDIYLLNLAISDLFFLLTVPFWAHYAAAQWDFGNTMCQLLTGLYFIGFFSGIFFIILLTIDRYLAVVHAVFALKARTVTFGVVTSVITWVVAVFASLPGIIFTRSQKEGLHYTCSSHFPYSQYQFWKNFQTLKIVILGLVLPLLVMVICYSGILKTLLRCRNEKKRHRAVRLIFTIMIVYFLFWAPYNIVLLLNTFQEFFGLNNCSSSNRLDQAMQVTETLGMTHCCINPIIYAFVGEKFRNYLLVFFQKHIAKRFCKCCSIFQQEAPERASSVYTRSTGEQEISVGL
# Method: Human CCR5 is used to generate stable transfectants in CHO K1 cells. Membranes prepared from these CCR5 transfectants are used in a radioligand binding assay using 125-1-MIP-1α as a ligand and the compounds of formula I are tested for inhibitory activity. The data are reported as IC50, i.e. the concentration of compound required to achieve 50% inhibition of [I-125]MIP-1α binding. In this assay, compounds of formula I have an IC50 between 0.004 and 10 μM.
# CCR2 receptor = assay: Receptor occupancy of the CCR2 receptor over time (blood monocytes, FACS); format: in vivo; conditions: dose 10 mg/kg
# Method: The Agents of the Invention typically have a favourable pharmacokinetic profile, i.e. such as a relatively fast elimination over time. A faster elimination is typically indicative for an improved tolerability or is typically associable with less side effects. Such may be assessed by determining for example the receptor occupancy of the CCR2 receptor over time.
# Receptor occupancy assaying may be performed in 96-well plates. 45 microliters of freshly obtained blood samples are incubated with 5 microliter of a MCP-1 solution (several concentrations for assessing a biding curve). The concentration of said MCP-1 solution is from 0.01 to 100 nanomolar, whereby the dilutions are made in RPMI1640 with glutamax supplemented with 1% nonessential amino acids, sodium pyruvate, penicillin/streptomycin, […] beta-mercaptoethanol and 1% human albumin.
# Said incubation is carried out for 30 min at 37° C., and is then stopped by adding 180 microliter BD FACS lysis solution followed by centrifugation. Said lysis addition and centrifugation is repeated once and the remaining cells are then washed with ice cold FACS buffer ([…] containing 2% FCS and 0.1% NaN3). Thereupon, the cells are stained with antibodies for FACS analysis.
# The cells are now triple stained with FITC-conjugated anti-CD14, PE-conjugated anti-HLA-DR and APC-conjugated anti-CCR2. The antibodies are diluted into FACS buffer, supplemented with 3 mg/ml juman IgG, and the staining is performed in a total of 25 microliter for 30 min. on ice. The stained cells are washed twice with cold FACS buffer and then analyzed by flow cytometry using a FACScalibur and CellQuest software. The expression of CCR2 on CD-14- and HLA-DR-positive monocytes is determined and expressed as mean fluorescence intensity (MFI). The relative CCR2 expression is expressed as percent of control staining.
SMILES,IC50 (hCCR2b) [nM],IC50 (Human CCR5) [nM],Receptor blockade After 2 hrs in % (CCR2 receptor) [%],Receptor blockade After 24 hrs in % (CCR2 receptor) [%]
"C[C@H]1CN(CC[C@]2(O)CC[C@@H](NC(=O)c3cc4c(OCc5coc6cc(OCC7CC7)ccc56)cccc4[nH]3)CC2)CC[C@@H]1O [Example 15, 4-(6-Cyclopropylmethoxy-benzofuran-3-ylmethoxy)-1H-indole-2-carboxylic acid {4-hydroxy-4-[2-((3S,4S)-4-hydroxy-3-methyl-piperidin-1-yl)-ethyl]-cyclohexyl}-amide]",0.4,4.8,103.2,42.6
"CCOCCOc1ccc2c(COc3cccc4[nH]c(C(=O)N[C@H]5CC[C@](O)(CCN6CC[C@H](O)[C@@H](C)C6)CC5)cc34)coc2c1 [Example 16, 4-[6-(2-Ethoxy-ethoxy)-benzofuran-3-ylmethoxy]-1H-indole-2-carboxylic acid {4-hydroxy-4-[2-((3S,4S)-4-hydroxy-3-methyl-piperidin-1-yl)-ethyl]-cyclohexyl}-amide]",0.8,2.9,78.1,21.6
"CC(C)OCCOc1ccc2c(COc3cccc4[nH]c(C(=O)N[C@H]5CC[C@](O)(CCN6CC[C@H](O)[C@@H](C)C6)CC5)cc34)coc2c1 [Example 18, 4-[6-(2-Isopropoxy-ethoxy)-benzofuran-3-ylmethoxy]-1H-indole-2-carboxylic acid {4-hydroxy-4-[2-((3S,4S)-4-hydroxy-3-methyl-piperidin-1-yl)-ethyl]-cyclohexyl}-amide]",0.2,3.3,88.2,43.5
